In ChEMBL document CHEMBL3352801, “Synthesis and lipid-lowering evaluation of 3-methyl-1H-purine-2,6-dione derivatives as potent and orally available anti-obesity agents” (Eur J Med Chem, 2014):

Assays:
Mus musculus [1] = assay: Antiobesity activity in diet-induced obese C57Bl/6 mouse assessed as reduction in body weight at 50 mg/kg/day, po for 4 weeks administered with high-fat diet; assay type: functional; set-up: scale not given: the % may be the effect or the level left
Mus musculus [2] = assay: Antiobesity activity in diet-induced obese C57Bl/6 mouse assessed as loss of liver weight at 50 mg/kg/day, po for 4 weeks administered with high-fat diet; assay type: functional
Mus musculus [3] = assay: Antiobesity activity in diet-induced obese C57Bl/6 mouse assessed as loss of liver weight at 150 mg/kg/day, po for 4 weeks administered with high-fat diet; assay type: functional
Mus musculus [4] = assay: Antiobesity activity in diet-induced obese C57Bl/6 mouse assessed as loss of epididymal fat mass at 50 mg/kg/day, po for 4 weeks administered with high-fat diet; assay type: functional
Mus musculus [5] = assay: Antiobesity activity in diet-induced obese C57Bl/6 mouse assessed as loss of epididymal fat mass at 150 mg/kg/day, po for 4 weeks administered with high-fat diet; assay type: functional
Mus musculus [6] = assay: Antiobesity activity in diet-induced obese C57Bl/6 mouse assessed as reduction in hepatic triglyceride level at 50 mg/kg/day, po for 4 weeks administered with high-fat diet by Oil Red O staining-based histological method; assay type: functional; set-up: scale not given: the % may be the effect or the level left
[7] = Cmax in Sprague-Dawley rat at 5 mg/kg, iv; assay type: ADME, organism-based; set-up: dose 5 mg/kg, route intravenous; conditions: in vivo
[8] = Tmax in Sprague-Dawley rat at 5 mg/kg, iv; assay type: ADME, organism-based; set-up: dose 5 mg/kg, route intravenous; conditions: in vivo
[9] = Half life in Sprague-Dawley rat at 5 mg/kg, iv; assay type: ADME, organism-based; set-up: dose 5 mg/kg, route intravenous; conditions: in vivo
[10] = AUC (0 to t) in Sprague-Dawley rat at 5 mg/kg, iv; assay type: ADME, organism-based; set-up: dose 5 mg/kg, route intravenous; conditions: plasma
[11] = Volume of distribution in Sprague-Dawley rat at 5 mg/kg, iv; assay type: ADME, organism-based; set-up: dose 5 mg/kg, route intravenous; conditions: in vivo
[12] = Total clearance in Sprague-Dawley rat at 5 mg/kg, iv; assay type: ADME, organism-based; set-up: dose 5 mg/kg, route intravenous; conditions: in vivo
[13] = Cmax in Sprague-Dawley rat at 20 mg/kg, po; assay type: ADME, organism-based; set-up: dose 20 mg/kg, route oral; conditions: in vivo
[14] = Tmax in Sprague-Dawley rat at 20 mg/kg, po; assay type: ADME, organism-based; set-up: dose 20 mg/kg, route oral; conditions: in vivo
[15] = Half life in Sprague-Dawley rat at 20 mg/kg, po; assay type: ADME, organism-based; set-up: dose 20 mg/kg, route oral; conditions: in vivo
[16] = AUC (0 to t) in Sprague-Dawley rat at 20 mg/kg, po; assay type: ADME, organism-based; set-up: dose 20 mg/kg, route oral; conditions: plasma
Rattus norvegicus = assay: Volume of distribution in Sprague-Dawley rat at 20 mg/kg, po; assay type: ADME, organism-based; set-up: dose 20 mg/kg, route oral; conditions: in vivo
[17] = Total clearance in Sprague-Dawley rat at 20 mg/kg, po; assay type: ADME, organism-based; set-up: dose 20 mg/kg, route oral; conditions: in vivo
[18] = Oral bioavailability in Sprague-Dawley rat at 20 mg/kg; assay type: ADME, organism-based; conditions: in vivo
[19] = Solubility of the compound at room temperature; assay type: physicochemical
Mus musculus [20] = assay: Antiobesity activity in diet-induced obese C57Bl/6 mouse assessed as reduction in body weight at 20 mg/kg/day, po for 4 weeks administered with high-fat diet; assay type: functional; set-up: scale not given: the % may be the effect or the level left
Mus musculus [21] = assay: Toxicity in diet-induced obese C57Bl/6 mouse assessed as change in food intake at 20 mg/kg/day, po for 4 weeks administered with high-fat diet; assay type: organism-based; set-up: route oral; conditions: in vivo, 672 h
Mus musculus [22] = assay: Antiobesity activity in diet-induced obese C57Bl/6 mouse assessed as loss of liver weight at 20 mg/kg/day, po for 4 weeks administered with high-fat diet; assay type: functional
Mus musculus [23] = assay: Antiobesity activity in diet-induced obese C57Bl/6 mouse assessed as loss of epididymal fat mass at 20 mg/kg/day, po for 4 weeks administered with high-fat diet; assay type: functional
Mus musculus [24] = assay: Antiobesity activity in diet-induced obese C57Bl/6 mouse assessed as reduction in fasting blood glucose at 20 mg/kg/day, po for 4 weeks administered with high-fat diet (reference value: 4.88 +/- 0.75 mM); assay type: functional
Mus musculus [25] = assay: Antiobesity activity in diet-induced obese C57Bl/6 mouse assessed as change in insulin level at 20 mg/kg/day, po for 4 weeks administered with high-fat diet (reference value: 4.31 +/- .82 mU); assay type: functional
Mus musculus [26] = assay: Toxicity in diet-induced obese C57Bl/6 mouse assessed as change in ALT level at 20 mg/kg/day, po for 4 weeks administered with high-fat diet (reference value: 29.6 +/- 8.29 U/L); assay type: organism-based; set-up: route oral; conditions: in vivo, 672 h
Mus musculus [27] = assay: Toxicity in diet-induced obese C57Bl/6 mouse assessed as change in AST level at 20 mg/kg/day, po for 4 weeks administered with high-fat diet (reference value: 128.00 +/- 20.59 U/L); assay type: organism-based; set-up: route oral; conditions: in vivo, 672 h
Mus musculus [28] = assay: Antiobesity activity in diet-induced obese C57Bl/6 mouse assessed as reduction in triglyceride level at 20 mg/kg/day, po for 4 weeks administered with high-fat diet (reference value: 0.96 +/- 0.14 mM); assay type: functional
Mus musculus [29] = assay: Antiobesity activity in diet-induced obese C57Bl/6 mouse assessed as reduction in LDL level at 20 mg/kg/day, po for 4 weeks administered with high-fat diet (reference value: 0.13 +/- 0.02 mM); assay type: functional
Mus musculus [30] = assay: Antiobesity activity in diet-induced obese C57Bl/6 mouse assessed as increase in HDL level at 20 mg/kg/day, po for 4 weeks administered with high-fat diet (reference value: 1.02 +/- 0.13 mM); assay type: functional
Mus musculus [31] = assay: Antiobesity activity in diet-induced obese C57Bl/6 mouse assessed as reduction in FFA level at 20 mg/kg/day, po for 4 weeks administered with high-fat diet (reference value: 25.07 +/- 3.49 ng/L); assay type: functional
Mus musculus [32] = assay: Antiobesity activity in diet-induced obese C57Bl/6 mouse assessed as reduction in HOMA-IR value at 20 mg/kg/day, po for 4 weeks administered with high-fat diet (reference value: 0.94 +/- 0.23 no_unit); assay type: functional
Mus musculus [33] = assay: Antiobesity activity in diet-induced obese C57Bl/6 mouse assessed as reduction in fasting blood glucose at 50 mg/kg/day, po for 4 weeks administered with high-fat diet (reference value: 4.88 +/- 0.75 mM); assay type: functional
Mus musculus [34] = assay: Antiobesity activity in diet-induced obese C57Bl/6 mouse assessed as change in insulin level at 50 mg/kg/day, po for 4 weeks administered with high-fat diet (reference value: 4.31 +/- .82 mU); assay type: functional
Mus musculus [35] = assay: Toxicity in diet-induced obese C57Bl/6 mouse assessed as change in ALT level at 50 mg/kg/day, po for 4 weeks administered with high-fat diet (reference value: 29.6 +/- 8.29 U/L); assay type: organism-based; set-up: route oral; conditions: in vivo, 672 h
Mus musculus [36] = assay: Toxicity in diet-induced obese C57Bl/6 mouse assessed as change in AST level at 50 mg/kg/day, po for 4 weeks administered with high-fat diet (reference value: 128.00 +/- 20.59 U/L); assay type: organism-based; set-up: route oral; conditions: in vivo, 672 h
Mus musculus [37] = assay: Antiobesity activity in diet-induced obese C57Bl/6 mouse assessed as reduction in triglyceride level at 50 mg/kg/day, po for 4 weeks administered with high-fat diet (reference value: 0.96 +/- 0.14 mM); assay type: functional
Mus musculus [38] = assay: Antiobesity activity in diet-induced obese C57Bl/6 mouse assessed as reduction in LDL level at 50 mg/kg/day, po for 4 weeks administered with high-fat diet (reference value: 0.13 +/- 0.02 mM); assay type: functional
Mus musculus [39] = assay: Antiobesity activity in diet-induced obese C57Bl/6 mouse assessed as increase in HDL level at 50 mg/kg/day, po for 4 weeks administered with high-fat diet (reference value: 1.02 +/- 0.13 mM); assay type: functional
Mus musculus [40] = assay: Antiobesity activity in diet-induced obese C57Bl/6 mouse assessed as reduction in FFA level at 50 mg/kg/day, po for 4 weeks administered with high-fat diet (reference value: 25.07 +/- 3.49 ng/L); assay type: functional
Mus musculus [41] = assay: Antiobesity activity in diet-induced obese C57Bl/6 mouse assessed as reduction in HOMA-IR value at 50 mg/kg/day, po for 4 weeks administered with high-fat diet (reference value: 0.94 +/- 0.23 no_unit); assay type: functional
Mus musculus [42] = assay: Antiobesity activity in diet-induced obese C57Bl/6 mouse assessed as reduction in hepatic triglyceride level at 20 mg/kg/day, po for 4 weeks administered with high-fat diet by Oil Red O staining-based histological method; assay type: functional; set-up: scale not given: the % may be the effect or the level left

SMILES: CCn1c(-c2ccc(OCCN(C)c3ccccn3)cc2)nc2c1c(=O)n(Cc1ccccc1C#N)c(=O)n2C.Cl
- Activity (Mus musculus [1]): 15.08%
- Activity (Mus musculus [2]): 22.67%
- Activity (Mus musculus [3]): 22%
- Activity (Mus musculus [4]): 56.2%
- Activity (Mus musculus [5]): 9.92%
- Activity (Mus musculus [6]): 21.59%
- Cmax [7]: 1740 ng/mL
- Tmax [8]: 4.98 min
- half-life [9]: 349 min
- AUC(0-t) [10]: 1780 ng·h/mL
- Vd [11]: 23.6 L/kg
- clearance [12]: 47.1 mL/min/kg
- Cmax [13]: 465 ng/mL
- Tmax [14]: 2.79 h
- half-life [15]: 418 min
- AUC(0-t) [16]: 4190 ng·h/mL
- Vd (Rattus norvegicus): 67.208 L/kg
- CL/F [17]: 139 mL/min/kg
- bioavailability [18]: 58.9%
- solubility [19]: 3280 µg/mL
- Activity (Mus musculus [20]): 12.86%
- Activity (Mus musculus [21]): Non-toxic
- Activity (Mus musculus [22]): 20%
- Activity (Mus musculus [23]): 18.18%
- Activity (Mus musculus [24]): 8.42 mM
- Activity (Mus musculus [25]): 7.48 mU
- Activity (Mus musculus [26]): 24 U/L
- Activity (Mus musculus [27]): 125.71 U/L
- Activity (Mus musculus [28]): 1.25 mM
- Activity (Mus musculus [29]): 0.22 mM
- Activity (Mus musculus [30]): 1.31 mM
- Activity (Mus musculus [31]): 26.8 ng/L
- Activity (Mus musculus [32]): 2.98
- Activity (Mus musculus [33]): 7.76 mM
- Activity (Mus musculus [34]): 4.76 mU
- Activity (Mus musculus [35]): 18.86 U/L
- Activity (Mus musculus [36]): 131.43 U/L
- Activity (Mus musculus [37]): 0.94 mM
- Activity (Mus musculus [38]): 0.17 mM
- Activity (Mus musculus [39]): 1.38 mM
- Activity (Mus musculus [40]): 25.73 ng/L
- Activity (Mus musculus [41]): 1.59
- Activity (Mus musculus [42]): 16.8%
